Assay results from ChEMBL document CHEMBL5236646, “Design, synthesis, and biological evaluation of BRD4 degraders” (Bioorg Med Chem, 2023).
The source made the active and inactive calls. The calls are words filed in the database; no cut-off is given here.

Assays:
[1] = target: T1, Protein cereblon/Bromodomain-containing protein 4 (Homo sapiens) (UniProt O60885+Q96SW2); experiment: Protac activity at CRBN/BRD4 in human MM1.S cells assessed as induction of BRD4 protein degradation by measuring residual activity at 300 nM measured after 1 hr by Western blot analysis (reference value: 317%); type: cell-based
[2] = target: T1, Protein cereblon/Bromodomain-containing protein 4 (Homo sapiens); experiment: Protac activity at CRBN/BRD4 in human MV4-11 cells assessed as induction of BRD4 protein degradation by measuring residual activity at 30 nM preincubated with tert-butyl (S)-2-(4-(4-chlorophenyl)-2,3,9-trimethyl-6H-thieno[3,2-f][1,2,4]triazolo[4,3-a][1,4]diazepin-6-yl)acetate for 2 hrs followed by compound addition and measured after 6 hrs by Western blot analysis (reference value: 100%); type: cell-based
[3] = target: T1, Protein cereblon/Bromodomain-containing protein 4 (Homo sapiens); experiment: Protac activity at CRBN/BRD4 in human MM1.S cells assessed as induction of BRD4 protein degradation by measuring residual activity at 0.09 uM incubated for 3 hrs by Western blot analysis relative to control; type: cell-based
[4] = Inhibition of TGF-beta induced activation of human MRC5 cells assessed as residual BRD4 protein level at 1 uM by Western blot analysis (reference value: 96%); type: functional
[5] = target: T1, Protein cereblon/Bromodomain-containing protein 4 (Homo sapiens); experiment: Protac activity at CRBN/BRD4 in human MV4-11 cells assessed as induction of BRD4 protein degradation by measuring residual activity at 1 nM measured after 6 hrs by Western blot analysis (reference value: 100%); type: cell-based
[6] = Inhibition of TGF-beta induced activation of human MRC5 cells assessed as residual BRD4 protein level at 5 uM by Western blot analysis (reference value: 96%); type: functional
[7] = target: T1, Protein cereblon/Bromodomain-containing protein 4 (Homo sapiens); experiment: Protac activity at CRBN/BRD4 in human MM1.S cells assessed as induction of BRD4 protein degradation by measuring residual activity at 300 nM measured immediately by Western blot analysis (reference value: 317%); type: cell-based
[8] = target: T1, Protein cereblon/Bromodomain-containing protein 4 (Homo sapiens); experiment: Protac activity at CRBN/BRD4 in human MM1.S cells assessed as induction of BRD4 protein degradation by measuring residual activity at 300 nM measured after 3 hrs by Western blot analysis (reference value: 317%); type: cell-based
[9] = target: T1, Protein cereblon/Bromodomain-containing protein 4 (Homo sapiens); experiment: Protac activity at CRBN/BRD4 in human MV4-11 cells assessed as induction of BRD4 protein degradation by measuring residual activity at 30 nM measured immediately by Western blot analysis (reference value: 100%); type: cell-based
[10] = target: T1, Protein cereblon/Bromodomain-containing protein 4 (Homo sapiens); experiment: Protac activity at CRBN/BRD4 in human MM1.S cells assessed as downregulation of MYC protein expression at […] incubated for 3 hrs by Western blot analysis; type: cell-based
[11] = target: T1, Protein cereblon/Bromodomain-containing protein 4 (Homo sapiens); experiment: Protac activity at CRBN/BRD4 in human MV4-11 cells assessed as induction of BRD4 protein degradation by measuring residual activity at 10 nM measured after 6 hrs by Western blot analysis (reference value: 100%); type: cell-based
MRC5 = experiment: Inhibition of TGF-beta induced activation of human MRC5 cells assessed as downregulation of COL-1 protein expression at 0.1 to 10 uM by Western blot analysis; type: functional, cell-based; conditions: dose 0.1-10 µM
[12] = target: T1, Protein cereblon/Bromodomain-containing protein 4 (Homo sapiens); experiment: Protac activity at CRBN/BRD4 in human MV4-11 cells assessed as induction of BRD4 protein degradation by measuring residual activity at 100 nM measured after 6 hrs by Western blot analysis (reference value: 100%); type: cell-based
MV4-11 = experiment: Antiproliferative activity against human […] cells assessed as inhibition of cell growth incubated for 72 hrs MTS assay; type: functional, cell-based; conditions: MV4-11, 72 h
[13] = target: T1, Protein cereblon/Bromodomain-containing protein 4 (Homo sapiens); experiment: Protac activity at CRBN/BRD4 in human MM1.S cells assessed as induction of BRD4 protein degradation by measuring residual activity at 300 nM preincubated with lenalidomide for 2 hrs followed by compound addition and measured after 6 hrs by Western blot analysis (reference value: 100%); type: cell-based
[14] = target: T1, Protein cereblon/Bromodomain-containing protein 4 (Homo sapiens); experiment: Protac activity at CRBN/BRD4 in human MV4-11 cells assessed as induction of BRD4 protein degradation by measuring residual activity at 3 nM measured after 6 hrs by Western blot analysis (reference value: 100%); type: cell-based
[15] = target: T1, Protein cereblon/Bromodomain-containing protein 4 (Homo sapiens); experiment: Protac activity at CRBN/BRD4 in human MM1.S cells assessed as induction of BRD4 protein degradation by measuring residual activity at 1000 nM measured after 6 hrs by Western blot analysis (reference value: 100%); type: cell-based
[16] = target: T1, Protein cereblon/Bromodomain-containing protein 4 (Homo sapiens); experiment: Protac activity at CRBN/BRD4 in human MM1.S cells assessed as induction of BRD4 protein degradation by measuring residual activity at 30 nM measured after 6 hrs by Western blot analysis (reference value: 100%); type: cell-based
[17] = target: T1, Protein cereblon/Bromodomain-containing protein 4 (Homo sapiens); experiment: Protac activity at CRBN/BRD4 in human MM1.S cells assessed as induction of BRD4 protein degradation by measuring residual activity at 300 nM measured after 9 hrs by Western blot analysis (reference value: 317%); type: cell-based
[18] = target: T1, Protein cereblon/Bromodomain-containing protein 4 (Homo sapiens); experiment: Protac activity at CRBN/BRD4 in human MV4-11 cells assessed as downregulation of MYC protein expression at 30 uM incubated for 3 hrs by Western blot analysis; type: cell-based
[19] = Inhibition of TGF-beta induced activation of human MRC5 cells assessed as residual BRD4 protein level at 0.5 uM by Western blot analysis (reference value: 96%); type: functional
[20] = target: T1, Protein cereblon/Bromodomain-containing protein 4 (Homo sapiens); experiment: Protac activity at CRBN/BRD4 in human MV4-11 cells assessed as induction of BRD4 protein degradation by measuring residual activity at 30 nM measured after 9 hrs by Western blot analysis (reference value: 100%); type: cell-based
[21] = target: T1, Protein cereblon/Bromodomain-containing protein 4 (Homo sapiens); experiment: Protac activity at CRBN/BRD4 in human MM1.S cells assessed as induction of BRD4 protein degradation by measuring residual activity at 300 nM measured after 6 hrs by Western blot analysis (reference value: 317%); type: cell-based
[22] = target: T1, Protein cereblon/Bromodomain-containing protein 4 (Homo sapiens); experiment: Protac activity at CRBN/BRD4 in human MM1.S cells assessed as induction of BRD4 protein degradation by measuring residual activity at 10 nM measured after 6 hrs by Western blot analysis (reference value: 100%); type: cell-based
[23] = target: T1, Protein cereblon/Bromodomain-containing protein 4 (Homo sapiens); experiment: Protac activity at CRBN/BRD4 in human MV4-11 cells assessed as induction of BRD4 protein degradation by measuring residual activity at 0.009 uM incubated for 3 hrs by Western blot analysis relative to control; type: cell-based
[24] = target: T1, Protein cereblon/Bromodomain-containing protein 4 (Homo sapiens); experiment: Protac activity at CRBN/BRD4 in human MM1.S cells assessed as downregulation of MYC protein expression at 300 nM measured after 3 hrs by Western blot analysis; type: cell-based
[25] = target: T1, Protein cereblon/Bromodomain-containing protein 4 (Homo sapiens); experiment: Protac activity at CRBN/BRD4 in human MM1.S cells assessed as induction of BRD4 protein degradation by measuring residual activity at 0.01 uM incubated for 3 hrs by Western blot analysis relative to control; type: cell-based
[26] = target: T1, Protein cereblon/Bromodomain-containing protein 4 (Homo sapiens); experiment: Protac activity at CRBN/BRD4 in human MM1.S cells assessed as induction of BRD4 protein degradation by measuring residual activity at 0.03 uM incubated for 3 hrs by Western blot analysis relative to control; type: cell-based
[27] = target: T1, Protein cereblon/Bromodomain-containing protein 4 (Homo sapiens); experiment: Protac activity at CRBN/BRD4 in human MV4-11 cells assessed as induction of BRD4 protein degradation by measuring residual activity at 0.001 uM incubated for 3 hrs by Western blot analysis relative to control; type: cell-based
[28] = target: T1, Protein cereblon/Bromodomain-containing protein 4 (Homo sapiens); experiment: Protac activity at CRBN/BRD4 in human MM1.S cells assessed as induction of BRD4 protein degradation by measuring residual activity at 100 nM measured after 6 hrs by Western blot analysis (reference value: 100%); type: cell-based

T1 sequence (Q96SW2 whole entry, looked up, other chains not shown): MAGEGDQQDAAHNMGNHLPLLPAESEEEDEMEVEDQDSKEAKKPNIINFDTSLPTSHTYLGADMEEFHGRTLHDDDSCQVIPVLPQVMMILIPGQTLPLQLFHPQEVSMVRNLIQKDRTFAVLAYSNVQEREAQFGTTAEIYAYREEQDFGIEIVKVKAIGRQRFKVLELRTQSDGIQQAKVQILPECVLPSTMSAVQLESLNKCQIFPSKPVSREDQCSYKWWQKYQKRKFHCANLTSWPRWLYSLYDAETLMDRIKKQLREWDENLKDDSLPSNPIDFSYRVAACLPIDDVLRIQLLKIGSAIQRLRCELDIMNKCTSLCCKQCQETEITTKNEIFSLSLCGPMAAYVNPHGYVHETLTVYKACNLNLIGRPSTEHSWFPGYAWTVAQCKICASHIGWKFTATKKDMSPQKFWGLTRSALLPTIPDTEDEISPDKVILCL

Compound `Cc1sc2c(c1C)C(c1ccc(Cl)cc1)=N[C@@H](CC(=O)NCCCCC(=O)NCCNc1cccc3c1C(=O)N(C1CCC(=O)NC1=O)C3=O)c1nnc(C)n1-2` (stereo not given in full) has an Activity [1] of 129%, an Activity [2] of 84% and an Activity [3] of 70%. For the same compound, the Activity [4] was 40%, the Activity [5] was 107% and the Activity [6] was 33%. The Activity [7] was 362%, the Activity [8] was 66% and the Activity [9] was 110%. For the same compound, the Activity [10] was “inactive”, the Activity [11] was 41% and the inhibition (MRC5) was “Active”. It also gave an Activity [12] of 28%, an IC50 (MV4-11) of 3 nM and an Activity [13] of 67%. The Activity [14] was 80%, the Activity [15] was 10% and the Activity [16] was 42%. For the same compound, the Activity [17] was 50%, the Activity [18] was “Active” and the Activity [19] was 26%. For the same compound, the Activity [20] was 49%, the Activity [21] was 18% and the Activity [22] was 62%. The Activity [23] was 62%, the Activity [24] was “Active” and the Activity [25] was 93%. For the same compound, the Activity [26] was 81%, the Activity [27] was 100% and the Activity [28] was 24%.
